Six compounds from ChEMBL document CHEMBL1151441, “Antimicrobial susceptibilities and clinical sources of Dialister species” (2007) can be followed below.

Holding throughout (assay type): functional
In test [1] the test system is Dialister invisus. The experiment in a line: Antimicrobial activity against Dialister invisus assessed as susceptibility breakpoint by CLSI method.
Test [2] has as its system Dialister micraerophilus. The experiment in a line: Antimicrobial activity against Dialister micraerophilus assessed as susceptibility breakpoint by CA-SFM method.
The subject of test [3] is Dialister micraerophilus. The experiment in a line: Antimicrobial activity against Dialister micraerophilus by agar dilution method.
For test [4], the system named is Dialister pneumosintes. The test is described as follows: Antimicrobial activity against Dialister pneumosintes assessed as susceptibility breakpoint by CLSI method.
Test [5] relates to Dialister pneumosintes. The test is described as follows: Antimicrobial activity against Dialister pneumosintes assessed as susceptibility breakpoint by CA-SFM method.
Test [6] relates to Dialister propionicifaciens. The test is described as follows: Antimicrobial activity against Dialister propionicifaciens assessed as susceptibility breakpoint by CA-SFM method.
For test [7], the system named is Dialister invisus. The experiment in a line: Antimicrobial activity against Dialister invisus assessed as susceptibility breakpoint by CA-SFM method.
In test [8] the test system is Dialister propionicifaciens. The experiment in a line: Antimicrobial activity against Dialister propionicifaciens by agar dilution method.
The subject of test [9] is Dialister micraerophilus. The experiment in a line: Antimicrobial activity against Dialister micraerophilus assessed as susceptibility breakpoint by CLSI method.
The test system of test [10] is Dialister invisus. The test is described as follows: Antimicrobial activity against Dialister invisus by agar dilution method.
Test [11] concerns Dialister pneumosintes. The experiment in a line: Antimicrobial activity against Dialister pneumosintes by agar dilution method.
In test [12] the test system is Dialister propionicifaciens. The test is described as follows: Antimicrobial activity against Dialister propionicifaciens assessed as susceptibility breakpoint by CLSI method.

The structures appear in SMILES notation. ≈ marks a conversion by molar mass, not a printed value.

On to `O=C(N[C@H](CO)[C@H](O)c1ccc([N+](=O)[O-])cc1)C(Cl)Cl` [CHLORAMPHENICOL], for which the Activity result (with Dialister invisus [1]; in the test with Dialister micraerophilus [2]; in the test on Dialister pneumosintes [4]; with Dialister pneumosintes [5]; in [6]; with Dialister invisus [7]) was “<=8 ug ml-1” throughout. The Activity entry (with Dialister micraerophilus [9]; in test [12]) was “<=8 ug ml-1” each time. The MIC (in the test with Dialister micraerophilus [3]; in test [8]; against Dialister invisus [10]; in the test with Dialister pneumosintes [11]) was 0.25 µg/mL (≈ 0.774 µM) in each case. Moreover, the MIC50 in the test with Dialister micraerophilus [3] and with Dialister pneumosintes [11] was 0.25 µg/mL (≈ 0.774 µM) in each case. The MIC90 in the test with Dialister micraerophilus [3] worked out at 1 µg/mL (≈ 3.09 µM); in the test with Dialister pneumosintes [11], 0.5 µg/mL (≈ 1.55 µM).

`CCC[C@@H]1C[C@@H](C(=O)N[C@@H]([C@H]2O[C@H](SC)[C@H](O)[C@@H](O)[C@H]2O)[C@H](C)Cl)N(C)C1` [CLINDAMYCIN]: the Activity entry (in the test on Dialister invisus [1]; with Dialister micraerophilus [2]; in the test with Dialister pneumosintes [4]; with Dialister pneumosintes [5]; in test [6]; in the test on Dialister invisus [7]) was “<=2 ug ml-1” in each case. The Activity entry (in the test on Dialister micraerophilus [9]; in test [12]) was “<=2 ug ml-1” in each case. Also, the MIC (in the test on Dialister micraerophilus [3]; in [8]; against Dialister invisus [10]; against Dialister pneumosintes [11]) was 0.125 µg/mL (≈ 0.294 µM) in each case. Further, the MIC50 in the test on Dialister micraerophilus [3] and in the test with Dialister pneumosintes [11] was 0.125 µg/mL (≈ 0.294 µM) each time. In addition, the MIC90 in the test on Dialister micraerophilus [3] and against Dialister pneumosintes [11] was 0.125 µg/mL (≈ 0.294 µM) in each case.

Consider `C[C@@H](O)[C@H]1C(=O)N2C(C(=O)O)=C(SCCNC=N)C[C@H]12` [IMIPENEM ANHYDROUS], for which the Activity entry (in the test with Dialister invisus [1]; in the test with Dialister micraerophilus [2]; with Dialister pneumosintes [4]; in the test with Dialister pneumosintes [5]; in test [6]; with Dialister invisus [7]) was “<=4 ug ml-1” in each case. Also, the Activity entry (in the test on Dialister micraerophilus [9]; in test [12]) was “<=4 ug ml-1” throughout. Also, the results for the MIC50 against Dialister micraerophilus [3] and in the test with Dialister pneumosintes [11] were 0.06 µg/mL (≈ 0.2 µM) and not above 0.06 µg/mL, respectively. Also, the MIC90 in the test with Dialister micraerophilus [3] is not above 0.06 µg/mL; against Dialister pneumosintes [11], 0.25 µg/mL (≈ 0.835 µM). For the same compound, the values for the MIC (in test [8]; in the test with Dialister invisus [10]; in the test on Dialister pneumosintes [11]) were not above 0.06 µg/mL, 0.06 µg/mL (≈ 0.2 µM) and not above 0.06 µg/mL, respectively.

On to `Cc1ncc([N+](=O)[O-])n1CCO` [METRONIDAZOLE], for which the Activity result in the test with Dialister invisus [1] was “<=8 ug ml-1”; in the test on Dialister micraerophilus [2], “<=2 ug ml-1”; in the test with Dialister pneumosintes [4], “<=8 ug ml-1”; with Dialister pneumosintes [5], “<=2 ug ml-1”; in test [6] it was “<=2 ug ml-1”; in the test with Dialister invisus [7], “<=2 ug ml-1”. Moreover, the Activity result (with Dialister micraerophilus [9]; in [12]) was “<=8 ug ml-1” each time. In addition, the minimal inhibitory concentration (MIC) against Dialister micraerophilus [3] was 1 µg/mL (≈ 5.84 µM); in test [8], 1 µg/mL (≈ 5.84 µM); against Dialister invisus [10], 2 µg/mL (≈ 11.7 µM); against Dialister pneumosintes [11], 1 µg/mL (≈ 5.84 µM). The MIC50 in the test on Dialister micraerophilus [3] worked out at 2 µg/mL (≈ 11.7 µM); in the test with Dialister pneumosintes [11], 4 µg/mL (≈ 23.4 µM). Moreover, the MIC90 with Dialister micraerophilus [3] and in the test on Dialister pneumosintes [11] was 8 µg/mL (≈ 46.7 µM) in each case.

As for `CCN1CCN(C(=O)N[C@@H](C(=O)N[C@@H]2C(=O)N3[C@@H]2SC(C)(C)[C@@H]3C(=O)O)c2ccccc2)C(=O)C1=O` [PIPERACILLIN], the Activity result with Dialister invisus [1] was “<=32 ug ml-1”; with Dialister micraerophilus [2], “<=8 ug ml-1”; in the test on Dialister pneumosintes [4], “<=32 ug ml-1”; in the test on Dialister pneumosintes [5] it was “<=8 ug ml-1”; in test [6], “<=8 ug ml-1”; in the test on Dialister invisus [7], “<=8 ug ml-1”. The Activity result (in the test on Dialister micraerophilus [9]; in test [12]) was “<=32 ug ml-1” each time. The MIC50 worked out at 0.125 µg/mL (≈ 0.242 µM) in the test on Dialister micraerophilus [3] and 1 µg/mL (≈ 1.93 µM) with Dialister pneumosintes [11]. Moreover, the MIC90 in the test on Dialister micraerophilus [3] came to 1 µg/mL (≈ 1.93 µM); in the test on Dialister pneumosintes [11] it was 16 µg/mL (≈ 30.9 µM). Besides, the minimum inhibitory concentration (MIC) in test [8] was 0.125 µg/mL (≈ 0.242 µM); with Dialister invisus [10], 0.125 µg/mL (≈ 0.242 µM); in the test on Dialister pneumosintes [11], not above 0.125 µg/mL.

As for `CC1(C)S[C@@H]2[C@H](NC(=O)[C@H](C(=O)O)c3ccsc3)C(=O)N2[C@H]1C(=O)O` [TICARCILLIN], the Activity entry is “<=32 ug ml-1” in the test on Dialister invisus [1]; “<=16 ug ml-1” with Dialister micraerophilus [2]; “<=32 ug ml-1” with Dialister pneumosintes [4]; “<=16 ug ml-1” in the test with Dialister pneumosintes [5]; “<=16 ug ml-1” in test [6]; “<=16 ug ml-1” in the test with Dialister invisus [7]. Besides, the Activity result (in the test with Dialister micraerophilus [9]; in [12]) was “<=32 ug ml-1” throughout. Moreover, the MIC in the test with Dialister micraerophilus [3] was not above 0.06 µg/mL; in [8], not above 0.06 µg/mL; with Dialister invisus [10], 0.25 µg/mL (≈ 0.65 µM); against Dialister pneumosintes [11], not above 0.06 µg/mL. Besides, the results for the MIC50 with Dialister micraerophilus [3] and against Dialister pneumosintes [11] were not above 0.06 µg/mL and 0.25 µg/mL (≈ 0.65 µM), respectively. Also, the MIC90 in the test on Dialister micraerophilus [3] turned out to be 0.5 µg/mL (≈ 1.3 µM); in the test on Dialister pneumosintes [11], 2 µg/mL (≈ 5.2 µM).
